ΔTm data for three compounds are collected here from doi:10.1101/2023.12.04.569845, “Identification of 4-(6-((2-methoxyphenyl)amino)pyrazin-2-yl)benzoic acids as CSNK2A inhibitors with antiviral activity and improved selectivity over PIM3” (bioRxiv, 2023).

Common to all, as to assay: biochemical
Parameters in all cases: Thermal shift (DSF, SYPRO Orange) Tm shift of recombinant kinase domains at 10 uM compound

The target of one assay is MAP2K1 (Homo sapiens, UniProt Q02750).
For a further assay, the target named is PAK4 (Homo sapiens, UniProt O96013).
For the next assay, the target named is T1, PHKg2 (Homo sapiens, UniProt P15735).
T1 construct: kinase domain
T1 sequence (P15735 1-406): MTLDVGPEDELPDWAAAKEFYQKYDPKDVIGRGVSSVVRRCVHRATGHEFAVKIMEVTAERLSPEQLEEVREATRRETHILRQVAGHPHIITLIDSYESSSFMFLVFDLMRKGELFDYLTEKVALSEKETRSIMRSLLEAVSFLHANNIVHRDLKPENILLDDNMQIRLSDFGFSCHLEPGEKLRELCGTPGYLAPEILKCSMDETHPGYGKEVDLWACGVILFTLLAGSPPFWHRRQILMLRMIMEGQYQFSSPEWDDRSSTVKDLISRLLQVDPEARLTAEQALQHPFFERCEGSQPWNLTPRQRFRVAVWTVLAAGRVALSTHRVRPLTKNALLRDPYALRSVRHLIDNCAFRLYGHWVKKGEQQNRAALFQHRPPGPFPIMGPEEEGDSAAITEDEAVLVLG

For a further assay, the target named is T2, JNK2 (Homo sapiens, UniProt P45984).
T2 construct: gene MAPK9

For the next assay, the target named is T3, MEK4 (Homo sapiens, UniProt P45985).
T3 construct: gene MAP2K4; kinase domain
T3 sequence (P45985 1-399): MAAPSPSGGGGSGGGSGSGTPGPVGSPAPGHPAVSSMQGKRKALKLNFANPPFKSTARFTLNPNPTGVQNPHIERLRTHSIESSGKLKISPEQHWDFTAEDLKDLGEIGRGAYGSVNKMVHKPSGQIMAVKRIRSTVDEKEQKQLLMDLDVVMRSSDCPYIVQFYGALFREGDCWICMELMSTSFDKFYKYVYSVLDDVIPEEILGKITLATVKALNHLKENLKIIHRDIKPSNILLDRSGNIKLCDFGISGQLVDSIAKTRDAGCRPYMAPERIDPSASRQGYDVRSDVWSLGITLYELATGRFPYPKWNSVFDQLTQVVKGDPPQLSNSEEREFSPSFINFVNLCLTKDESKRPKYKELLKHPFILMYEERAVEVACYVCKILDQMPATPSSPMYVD

A further assay deals with T4, CSNK2a2 (Homo sapiens, UniProt P19784).
T4 construct: kinase domain

The next assay deals with T5, DRAK1 (Homo sapiens, UniProt Q9UEE5).
T5 construct: gene STK17A
T5 sequence (Q9UEE5 1-414): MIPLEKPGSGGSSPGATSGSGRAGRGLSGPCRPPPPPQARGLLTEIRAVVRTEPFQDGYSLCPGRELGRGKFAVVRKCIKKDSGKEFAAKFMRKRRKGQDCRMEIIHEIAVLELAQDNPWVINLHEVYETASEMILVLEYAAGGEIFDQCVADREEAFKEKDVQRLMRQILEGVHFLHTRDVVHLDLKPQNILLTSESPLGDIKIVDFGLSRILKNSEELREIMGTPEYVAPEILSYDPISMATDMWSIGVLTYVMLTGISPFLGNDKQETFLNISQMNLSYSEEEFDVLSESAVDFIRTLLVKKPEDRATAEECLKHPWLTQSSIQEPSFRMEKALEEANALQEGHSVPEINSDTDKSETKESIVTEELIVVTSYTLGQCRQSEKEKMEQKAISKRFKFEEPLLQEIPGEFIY

For another assay, the target named is T6, PLK4 (Homo sapiens, UniProt O00444).
T6 sequence (O00444 1-970): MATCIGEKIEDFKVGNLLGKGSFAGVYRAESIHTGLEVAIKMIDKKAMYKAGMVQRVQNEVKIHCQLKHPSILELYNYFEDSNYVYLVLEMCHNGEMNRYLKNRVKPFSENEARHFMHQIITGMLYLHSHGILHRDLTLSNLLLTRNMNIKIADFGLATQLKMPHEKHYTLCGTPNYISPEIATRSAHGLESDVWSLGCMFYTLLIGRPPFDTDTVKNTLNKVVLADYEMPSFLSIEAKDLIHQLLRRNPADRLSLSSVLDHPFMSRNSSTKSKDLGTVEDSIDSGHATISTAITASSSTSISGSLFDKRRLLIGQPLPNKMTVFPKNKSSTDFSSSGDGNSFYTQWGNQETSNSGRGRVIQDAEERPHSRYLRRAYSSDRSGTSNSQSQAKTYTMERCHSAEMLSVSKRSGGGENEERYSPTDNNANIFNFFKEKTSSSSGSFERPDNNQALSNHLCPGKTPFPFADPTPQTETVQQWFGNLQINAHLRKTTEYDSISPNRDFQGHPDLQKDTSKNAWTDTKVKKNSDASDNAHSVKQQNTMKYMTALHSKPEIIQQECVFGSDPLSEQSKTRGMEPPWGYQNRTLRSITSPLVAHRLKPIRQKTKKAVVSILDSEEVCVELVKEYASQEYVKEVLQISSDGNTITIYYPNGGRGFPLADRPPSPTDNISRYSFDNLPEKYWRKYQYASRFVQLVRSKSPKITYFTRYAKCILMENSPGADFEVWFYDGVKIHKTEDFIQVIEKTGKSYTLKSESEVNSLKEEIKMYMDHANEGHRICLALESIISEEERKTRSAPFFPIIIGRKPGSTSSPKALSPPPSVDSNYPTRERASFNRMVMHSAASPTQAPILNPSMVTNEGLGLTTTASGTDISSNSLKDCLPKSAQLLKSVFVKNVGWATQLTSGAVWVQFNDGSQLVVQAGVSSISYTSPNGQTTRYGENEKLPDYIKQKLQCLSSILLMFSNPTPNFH

Read-outs that look alike come from different tables or passages of the source.

Chain of MAP2K1 (Q02750 whole entry): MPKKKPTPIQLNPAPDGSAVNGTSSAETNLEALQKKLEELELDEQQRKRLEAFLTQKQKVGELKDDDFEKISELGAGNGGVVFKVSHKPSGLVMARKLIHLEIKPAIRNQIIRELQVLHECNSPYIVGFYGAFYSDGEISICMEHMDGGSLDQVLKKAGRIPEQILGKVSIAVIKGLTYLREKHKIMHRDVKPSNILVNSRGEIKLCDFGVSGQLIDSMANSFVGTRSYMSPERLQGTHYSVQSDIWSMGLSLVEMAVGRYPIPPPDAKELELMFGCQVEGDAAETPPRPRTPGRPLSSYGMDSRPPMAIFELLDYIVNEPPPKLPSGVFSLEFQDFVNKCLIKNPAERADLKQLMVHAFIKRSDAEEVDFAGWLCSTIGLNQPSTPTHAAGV
T2 sequence (P45984 whole entry): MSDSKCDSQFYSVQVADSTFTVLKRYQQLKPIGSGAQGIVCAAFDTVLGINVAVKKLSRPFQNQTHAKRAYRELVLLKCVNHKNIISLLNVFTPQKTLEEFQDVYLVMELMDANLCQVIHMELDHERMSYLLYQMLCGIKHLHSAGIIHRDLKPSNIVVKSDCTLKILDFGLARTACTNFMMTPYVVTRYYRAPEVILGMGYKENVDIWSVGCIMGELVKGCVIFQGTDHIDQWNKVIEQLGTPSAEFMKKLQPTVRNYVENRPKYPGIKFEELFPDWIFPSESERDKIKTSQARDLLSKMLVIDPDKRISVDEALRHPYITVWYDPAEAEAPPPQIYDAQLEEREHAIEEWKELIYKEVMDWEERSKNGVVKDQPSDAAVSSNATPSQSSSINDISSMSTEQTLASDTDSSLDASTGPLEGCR
Chain of PAK4 (O96013 whole entry): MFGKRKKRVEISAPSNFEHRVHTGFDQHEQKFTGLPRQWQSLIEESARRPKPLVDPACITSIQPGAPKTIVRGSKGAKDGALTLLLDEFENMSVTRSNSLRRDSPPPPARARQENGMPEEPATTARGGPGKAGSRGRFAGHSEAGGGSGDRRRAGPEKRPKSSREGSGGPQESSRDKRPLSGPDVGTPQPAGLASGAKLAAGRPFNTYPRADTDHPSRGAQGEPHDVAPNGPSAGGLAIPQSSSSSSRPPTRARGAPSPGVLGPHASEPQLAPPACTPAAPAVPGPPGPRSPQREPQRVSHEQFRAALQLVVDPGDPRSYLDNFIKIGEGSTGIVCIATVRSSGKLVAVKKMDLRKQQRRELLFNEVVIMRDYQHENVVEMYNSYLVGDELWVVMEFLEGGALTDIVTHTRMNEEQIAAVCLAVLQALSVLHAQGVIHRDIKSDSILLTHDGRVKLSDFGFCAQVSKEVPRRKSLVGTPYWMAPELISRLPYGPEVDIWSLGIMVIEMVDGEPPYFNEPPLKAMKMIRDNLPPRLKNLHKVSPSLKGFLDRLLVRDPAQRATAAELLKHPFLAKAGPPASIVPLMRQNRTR
T4 sequence (P19784 whole entry, the tested form may be a part): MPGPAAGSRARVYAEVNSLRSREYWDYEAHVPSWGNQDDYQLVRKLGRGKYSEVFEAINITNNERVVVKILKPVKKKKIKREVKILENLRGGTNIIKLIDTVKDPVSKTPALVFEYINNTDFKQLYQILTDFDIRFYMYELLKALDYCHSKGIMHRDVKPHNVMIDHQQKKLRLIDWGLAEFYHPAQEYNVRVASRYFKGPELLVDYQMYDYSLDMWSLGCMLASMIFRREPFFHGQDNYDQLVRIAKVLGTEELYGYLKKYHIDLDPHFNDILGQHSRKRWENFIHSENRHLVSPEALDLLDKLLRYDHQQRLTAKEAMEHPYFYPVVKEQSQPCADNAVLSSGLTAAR

On to `COc1ccc(OC(C)C)cc1Nc1cncc(-c2ccc(C(=O)O)cc2)n1` [7c], for which the ΔTm at 10 µM at MAP2K1 (read-out: 7c) was found to be 1 °C; on PAK4 (read-out: 7c) it was 1 °C; at PHKg2 (read-out: 7c), 3 °C; at JNK2 (read-out: 7c), 0 °C; at MEK4 (read-out: 7c) it was 2 °C; at CSNK2a2 (read-out: 7c), 15 °C. Moreover, the ΔTm at 10 µM on DRAK1 (read-out: 7c) was determined as 4 °C; at PLK4 (read-out: 7c) it was 6 °C.

Turning to `CC(C)Oc1ccc2ccn(-c3cncc(-c4ccc(C(=O)O)cc4)n3)c2c1` [6c], the ΔTm at 10 µM at MAP2K1 (read-out: 6c) came to 1 °C; on PAK4 (read-out: 6c), 3 °C; on PHKg2 (read-out: 6c), 5 °C; at JNK2 (read-out: 6c), 0 °C; at MEK4 (read-out: 6c) it was 9 °C; on CSNK2a2 (read-out: 6c), 16 °C. Also, the results for the ΔTm at 10 µM on DRAK1 (read-out: 6c) and on PLK4 (read-out: 6c) were 6 °C and 10 °C, respectively.

As to `CC(C)Nc1ccc2cnn(-c3cncc(-c4ccc(C(=O)O)cc4)n3)c2c1` [compound 2, 2], the ΔTm at 10 µM was 2 °C at MAP2K1 (read-out: 2); 3 °C on PAK4 (read-out: 2); 8 °C at PHKg2 (read-out: 2); 1 °C at JNK2 (read-out: 2); 5 °C on MEK4 (read-out: 2); 15 °C on CSNK2a2 (read-out: 2). The ΔTm at 10 µM at DRAK1 (read-out: 2) was 8 °C; on PLK4 (read-out: 2) it was 11 °C.
